Measured values: patent US12479847B2 (DANA-FARBER CANCER INSTITUTE, INC., priority 2019, dated 2025)

Key:
wild-type LRKK2 = target: T1, wild-type LRKK2 (Mus musculus, UniProt Q5S006); test: LRRK2 immunoblot, phosphorylation of Ser935, NIH-3T3 cell lysates; format: cell-based; conditions: FIG. 1
T1 construct: endogenous in cells; host or cells: NIH-3T3
Experimental: Cell lysates were extracted from the NIH-3T3 cell pellet using lysis buffer (40 mM Tris-HCl pH 8.0, 120 mM NaCl, 0.10% Nonidet™-P40) supplemented with protease inhibitors. Proteins in whole-cell lysates were separated by SDS-PAGE and transferred to an Amersham™ nitrocellulose membrane (Amersham, UK). Nitrocellulose membranes were blocked with 5% skim milk in phosphate-buffered saline containing Tween 20 and incubated with primary antibodies overnight at 4° C. The blots were then incubated with the appropriate horseradish peroxidase (HRP)-conjugated secondary antibodies and proteins were visualized by enhanced chemiluminescence, according to the manufacturer's protocol (Amersham™ Western blotting). Secondary antibodies, anti-rabbit IgG-HRP were purchased from Cell Signaling technology. Immunoblot film were scanned on a LAS500 scanner, and images were managed with Adobe Photoshop

human LRRK2 kinase = human LRRK2 kinase (Homo sapiens, UniProt Q5S007); conditions: LRRK2, ADP-Glo, ATP 10 μM, 60 minutes at 25° C.
Sequence of human LRRK2 kinase (Q5S007 whole entry): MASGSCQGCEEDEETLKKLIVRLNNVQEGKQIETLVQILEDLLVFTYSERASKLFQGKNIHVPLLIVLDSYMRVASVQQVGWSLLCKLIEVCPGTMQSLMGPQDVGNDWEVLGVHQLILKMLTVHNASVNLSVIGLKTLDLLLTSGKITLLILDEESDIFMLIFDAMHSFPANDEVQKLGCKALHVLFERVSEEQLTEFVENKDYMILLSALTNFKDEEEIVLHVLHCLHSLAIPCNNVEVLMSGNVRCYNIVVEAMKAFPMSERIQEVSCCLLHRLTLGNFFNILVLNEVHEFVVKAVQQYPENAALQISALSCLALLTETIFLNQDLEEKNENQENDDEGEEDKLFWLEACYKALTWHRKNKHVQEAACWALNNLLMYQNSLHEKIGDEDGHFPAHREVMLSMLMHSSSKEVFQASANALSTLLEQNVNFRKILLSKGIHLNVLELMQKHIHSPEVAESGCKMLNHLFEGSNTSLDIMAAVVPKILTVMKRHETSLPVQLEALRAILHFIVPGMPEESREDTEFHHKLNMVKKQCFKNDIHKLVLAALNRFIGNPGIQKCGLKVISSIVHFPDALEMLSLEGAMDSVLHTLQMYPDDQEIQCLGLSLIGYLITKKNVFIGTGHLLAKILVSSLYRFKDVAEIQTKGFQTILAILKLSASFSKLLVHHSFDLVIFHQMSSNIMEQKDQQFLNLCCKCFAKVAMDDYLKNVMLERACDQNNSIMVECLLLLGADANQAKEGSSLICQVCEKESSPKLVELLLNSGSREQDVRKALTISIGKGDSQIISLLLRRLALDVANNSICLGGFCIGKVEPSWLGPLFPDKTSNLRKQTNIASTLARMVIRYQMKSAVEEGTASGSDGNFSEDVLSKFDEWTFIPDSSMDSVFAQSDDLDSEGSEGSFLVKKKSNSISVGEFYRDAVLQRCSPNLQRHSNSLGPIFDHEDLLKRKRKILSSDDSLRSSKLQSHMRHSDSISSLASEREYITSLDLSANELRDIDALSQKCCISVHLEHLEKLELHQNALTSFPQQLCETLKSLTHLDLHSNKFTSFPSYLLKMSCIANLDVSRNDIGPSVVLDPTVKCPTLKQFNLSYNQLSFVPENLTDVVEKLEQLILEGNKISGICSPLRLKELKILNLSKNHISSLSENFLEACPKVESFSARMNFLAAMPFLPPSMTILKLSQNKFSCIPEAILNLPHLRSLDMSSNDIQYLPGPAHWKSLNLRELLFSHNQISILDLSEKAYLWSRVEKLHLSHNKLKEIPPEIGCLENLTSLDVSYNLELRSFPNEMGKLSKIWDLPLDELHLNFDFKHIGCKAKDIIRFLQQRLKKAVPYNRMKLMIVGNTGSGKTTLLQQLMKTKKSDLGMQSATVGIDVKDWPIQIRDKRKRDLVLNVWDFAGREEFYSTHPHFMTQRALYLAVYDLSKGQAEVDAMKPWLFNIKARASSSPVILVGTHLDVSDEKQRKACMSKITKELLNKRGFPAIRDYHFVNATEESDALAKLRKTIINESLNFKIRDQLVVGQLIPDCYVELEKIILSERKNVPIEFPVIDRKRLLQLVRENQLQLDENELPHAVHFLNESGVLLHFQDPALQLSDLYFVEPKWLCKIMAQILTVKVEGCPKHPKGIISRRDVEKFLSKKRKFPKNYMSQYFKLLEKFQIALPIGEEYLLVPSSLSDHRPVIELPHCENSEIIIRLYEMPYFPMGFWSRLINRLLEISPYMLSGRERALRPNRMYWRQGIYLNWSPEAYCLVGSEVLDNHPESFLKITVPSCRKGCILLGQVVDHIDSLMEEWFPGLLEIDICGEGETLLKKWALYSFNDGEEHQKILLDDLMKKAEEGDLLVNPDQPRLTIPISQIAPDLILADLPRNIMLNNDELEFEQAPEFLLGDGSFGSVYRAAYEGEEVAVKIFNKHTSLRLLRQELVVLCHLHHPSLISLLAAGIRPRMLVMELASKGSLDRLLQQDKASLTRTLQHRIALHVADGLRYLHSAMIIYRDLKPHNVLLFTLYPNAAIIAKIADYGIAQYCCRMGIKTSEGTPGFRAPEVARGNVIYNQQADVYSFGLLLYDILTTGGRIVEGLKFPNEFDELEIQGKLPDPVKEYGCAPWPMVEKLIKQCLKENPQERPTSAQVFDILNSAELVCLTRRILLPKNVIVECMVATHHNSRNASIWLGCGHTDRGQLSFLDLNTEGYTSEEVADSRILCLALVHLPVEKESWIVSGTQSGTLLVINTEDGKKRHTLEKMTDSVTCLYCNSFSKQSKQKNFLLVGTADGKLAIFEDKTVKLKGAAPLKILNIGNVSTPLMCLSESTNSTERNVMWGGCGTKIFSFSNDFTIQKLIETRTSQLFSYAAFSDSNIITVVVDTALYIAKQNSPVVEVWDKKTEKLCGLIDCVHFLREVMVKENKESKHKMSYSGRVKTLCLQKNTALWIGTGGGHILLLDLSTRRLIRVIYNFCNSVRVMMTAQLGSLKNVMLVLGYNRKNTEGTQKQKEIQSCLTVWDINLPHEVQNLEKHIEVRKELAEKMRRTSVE

T1 sequence (Q5S006 whole entry): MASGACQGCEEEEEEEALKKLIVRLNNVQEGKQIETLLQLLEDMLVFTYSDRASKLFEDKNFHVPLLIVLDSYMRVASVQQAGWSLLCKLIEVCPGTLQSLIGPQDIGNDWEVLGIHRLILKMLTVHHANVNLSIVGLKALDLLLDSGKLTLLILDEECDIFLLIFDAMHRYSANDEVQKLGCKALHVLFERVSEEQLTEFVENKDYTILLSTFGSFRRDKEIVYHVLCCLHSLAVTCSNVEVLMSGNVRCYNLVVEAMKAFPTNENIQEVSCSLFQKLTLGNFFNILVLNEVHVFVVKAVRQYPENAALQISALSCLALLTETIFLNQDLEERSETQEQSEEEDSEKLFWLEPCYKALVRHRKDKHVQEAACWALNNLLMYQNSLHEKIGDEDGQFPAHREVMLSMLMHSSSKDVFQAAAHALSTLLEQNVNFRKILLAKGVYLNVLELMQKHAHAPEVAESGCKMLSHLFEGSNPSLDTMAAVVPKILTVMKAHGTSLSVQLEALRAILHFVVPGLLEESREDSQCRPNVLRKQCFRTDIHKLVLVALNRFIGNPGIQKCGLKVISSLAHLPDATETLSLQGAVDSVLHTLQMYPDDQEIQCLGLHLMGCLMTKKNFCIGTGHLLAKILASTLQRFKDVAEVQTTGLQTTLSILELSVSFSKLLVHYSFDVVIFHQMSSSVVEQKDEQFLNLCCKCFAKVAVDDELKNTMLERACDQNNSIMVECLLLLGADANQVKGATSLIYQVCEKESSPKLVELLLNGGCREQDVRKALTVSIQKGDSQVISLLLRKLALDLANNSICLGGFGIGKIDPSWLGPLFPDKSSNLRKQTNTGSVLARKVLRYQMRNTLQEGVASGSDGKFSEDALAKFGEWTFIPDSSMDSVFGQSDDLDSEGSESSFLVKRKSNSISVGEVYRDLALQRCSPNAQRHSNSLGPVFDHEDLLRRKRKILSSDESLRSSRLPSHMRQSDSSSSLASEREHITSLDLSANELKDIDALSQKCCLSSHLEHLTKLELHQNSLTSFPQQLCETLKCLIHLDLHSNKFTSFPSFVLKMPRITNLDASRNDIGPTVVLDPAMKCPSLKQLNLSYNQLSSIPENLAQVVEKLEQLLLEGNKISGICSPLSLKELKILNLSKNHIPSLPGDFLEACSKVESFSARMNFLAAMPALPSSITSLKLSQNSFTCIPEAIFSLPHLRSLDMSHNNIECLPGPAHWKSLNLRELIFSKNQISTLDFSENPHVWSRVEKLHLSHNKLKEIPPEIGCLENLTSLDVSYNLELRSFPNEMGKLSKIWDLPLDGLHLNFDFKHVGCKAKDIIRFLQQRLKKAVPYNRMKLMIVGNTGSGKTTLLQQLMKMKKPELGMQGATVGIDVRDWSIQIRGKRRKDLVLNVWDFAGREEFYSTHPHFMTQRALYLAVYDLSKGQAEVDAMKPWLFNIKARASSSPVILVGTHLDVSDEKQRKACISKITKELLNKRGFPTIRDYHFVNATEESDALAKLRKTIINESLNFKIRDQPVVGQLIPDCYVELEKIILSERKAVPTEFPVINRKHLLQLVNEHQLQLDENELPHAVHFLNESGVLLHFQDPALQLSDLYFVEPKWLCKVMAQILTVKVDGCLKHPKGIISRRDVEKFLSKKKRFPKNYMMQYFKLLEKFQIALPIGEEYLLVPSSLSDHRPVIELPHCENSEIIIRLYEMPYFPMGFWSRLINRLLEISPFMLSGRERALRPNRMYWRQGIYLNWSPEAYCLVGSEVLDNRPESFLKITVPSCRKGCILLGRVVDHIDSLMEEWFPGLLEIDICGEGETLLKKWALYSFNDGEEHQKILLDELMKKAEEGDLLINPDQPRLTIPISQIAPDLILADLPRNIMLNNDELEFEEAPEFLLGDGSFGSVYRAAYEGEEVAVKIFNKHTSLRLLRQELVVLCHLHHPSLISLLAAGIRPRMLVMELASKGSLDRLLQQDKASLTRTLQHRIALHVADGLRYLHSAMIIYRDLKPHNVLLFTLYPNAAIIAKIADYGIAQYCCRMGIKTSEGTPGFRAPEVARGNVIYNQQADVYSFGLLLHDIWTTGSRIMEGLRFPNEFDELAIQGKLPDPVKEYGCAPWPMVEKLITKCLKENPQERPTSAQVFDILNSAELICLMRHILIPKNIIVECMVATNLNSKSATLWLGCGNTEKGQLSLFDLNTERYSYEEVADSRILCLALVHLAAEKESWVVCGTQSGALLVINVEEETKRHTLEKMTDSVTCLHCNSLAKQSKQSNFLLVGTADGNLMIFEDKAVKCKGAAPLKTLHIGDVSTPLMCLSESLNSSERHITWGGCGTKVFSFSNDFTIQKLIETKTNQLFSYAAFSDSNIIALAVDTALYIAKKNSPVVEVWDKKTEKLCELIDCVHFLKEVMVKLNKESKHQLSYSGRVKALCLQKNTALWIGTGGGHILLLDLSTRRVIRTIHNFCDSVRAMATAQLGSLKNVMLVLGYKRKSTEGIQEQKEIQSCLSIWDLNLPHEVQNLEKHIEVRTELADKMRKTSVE

Row | IC50 (human LRRK2 kinase) [nM] | Structure (SMILES) | inhibition of the phosphorylation of Ser935 in wild-type LRKK2 (wild-type LRKK2)
1 | < 10 | CCNc1nc(Nc2ccc(C(=O)N3CCOCC3)c3c2OCC3)nc2[nH]cc(Cl)c12 [Compound 101, (7-((5-chloro-4-(ethylamino)-7H-pyrrolo[2,3-d]pyrimidin-2-yl)amino)-2,3-dihydrobenzofuran-4-yl)(morpholino)methanone] | –
2 | 10 to 100 | CCCNc1nc(Nc2ccc(C(=O)N3CCC(N4CCOCC4)CC3)c3c2OCC3)nc2[nH]cc(Cl)c12 [Compound 102, (7-((5-chloro-4-(propylamino)-7H-pyrrolo[2,3-d]pyrimidin-2-yl)amino)-2,3-dihydrobenzofuran-4-yl)(4-morpholinopiperidin-1-yl)methanone] | –
3 | 10 to 100 | O=C(c1ccc(Nc2nc(NC3CCC3)c3c(Cl)c[nH]c3n2)c2c1CCO2)N1CCC(N2CCOCC2)CC1 [Compound 103, (7-((5-chloro-4-(cyclobutylamino)-7H-pyrrolo[2,3-d]pyrimidin-2-yl)amino)-2,3-dihydrobenzofuran-4-yl)(4-morpholinopiperidin-1-yl)methanone] | –
4 | < 10 | CCNc1nc(Nc2ccc(C(=O)N3CCC(N4CCOCC4)CC3)c3c2OCC3)nc2[nH]cc(Cl)c12 [Compound 105, (7-((5-chloro-4-(ethylamino)-7H-pyrrolo[2,3-d]pyrimidin-2-yl)amino)-2,3-dihydrobenzofuran-4-yl)(4-morpholinopiperidin-1-yl)methanone] | –

Further lines, the molecule ahead of its results:

Row | Structure (SMILES) | IC50 (human LRRK2 kinase) [nM] | inhibition of the phosphorylation of Ser935 in wild-type LRKK2 (wild-type LRKK2)
5 | CCCNc1nc(Nc2ccc(C(=O)N3CCC(N4CCOCC4)CC3)c3c2OCCO3)nc2[nH]cc(Cl)c12 [Compound 2, (8-((5-chloro-4-(propylamino)-7H-pyrrolo[2,3-d]pyrimidin-2-yl)amino)-2,3-dihydrobenzo[b][1,4]dioxin-5-yl)(4-morpholinopiperidin-1-yl)methanone] | < 10 | inhibited the phosphorylation of Ser935 in wild-type LRKK2 with potency similar to known LRRK2 inhibitor LRRK2-IN-1
6 | CCCNc1nc(Nc2ccc(S(=O)(=O)N3CCC(N4CCOCC4)CC3)cc2OC)nc2[nH]cc(Cl)c12 [Compound 19, 5-chloro-N2-(2-methoxy-4-((4-morpholinopiperidin-1-yl)sulfonyl)phenyl)-N4-propyl-7H-pyrrolo[2,3-d]pyrimidine-2,4-diamine] | 100 to 1000 | inhibited the phosphorylation of Ser935 in wild-type LRKK2 with potency similar to known LRRK2 inhibitor LRRK2-IN-1
7 | CCCNc1nc(Nc2ccc(P3(=O)CCN(C4CC4)CC3)cc2OC)nc2[nH]cc(Cl)c12 [Compound 99, 4-(4-((5-chloro-4-(propylamino)-7H-pyrrolo[2,3-d]pyrimidin-2-yl)amino)-3-methoxyphenyl)-1-cyclopropyl-1,4-azaphosphinane 4-oxide] | 10 to 100 | –
8 | CCCNc1nc(Nc2ccc(P3(=O)CCN(C(C)=O)CC3)cc2OC)nc2[nH]cc(Cl)c12 [Compound 100, 1-(4-(4-((5-chloro-4-(propylamino)-7H-pyrrolo[2,3-d]pyrimidin-2-yl)amino)-3-methoxyphenyl)-4-oxido-1,4-azaphosphinan-1-yl)ethan-1-one] | 10 to 100 | –
9 | COc1cc(P2(=O)CCN(C3CC3)CC2)ccc1Nc1nc(NC2CCC2)c2c(Cl)c[nH]c2n1 [Compound 104, 4-(4-((5-chloro-4-(cyclobutylamino)-7H-pyrrolo[2,3-d]pyrimidin-2-yl)amino)-3-methoxyphenyl)-1-cyclopropyl-1,4-azaphosphinane 4-oxide] | 10 to 100 | –
10 | COc1cc(C(=O)N2CCC(N3CCN(C)CC3)CC2)ccc1Nc1ncc2c(n1)N(C)c1ccccc1C(=O)N2C [LRRK2-IN-1, reference compound] | – | inhibition of the phosphorylation of Ser935
